Values quoted from earlier work, collected in patent publication US10627374B2, “LC-MS configuration for purification and detection of analytes having a broad range of hydrophobicites” (COHESIVE TECHNOLOGIES INC., priority 2010, dated 2020).
Where two headings read alike, the source gives them in different places.

logP (Table 2) | logP (Table 1) | log P (approximate) | Structure (SMILES)
1.26 | 1.26 | – | C[C@]12CCC(=O)C=C1CC[C@@H]1[C@@H]2[C@@H](O)C[C@@]2(C)[C@H]1CC[C@]2(O)C(=O)CO [Cortisol (hydrocortisone)]
2.07 | 2.07 | – | C[C@]12C=CC(=O)C=C1CC[C@@H]1[C@@H]2C(=O)C[C@@]2(C)[C@H]1CC[C@]2(O)C(=O)CO [Prednisone]
3.3 | 3.3 | – | C=CC[C@@H]1/C=C(\C)C[C@H](C)C[C@H](OC)[C@H]2O[C@@](O)(C(=O)C(=O)N3CCCC[C@H]3C(=O)O[C@H](/C(C)=C/[C@@H]3CC[C@@H](O)[C@H](OC)C3)[C@H](C)[C@@H](O)CC1=O)[C@H](C)C[C@@H]2OC [Tacrolimus]

The remaining lines, values behind:

Structure (SMILES) | logP (Table 2) | logP (Table 1) | log P (approximate)
O=c1[nH]cc(F)c(=O)[nH]1 [5-Fluorouracil] | −0.9 | – | –
CS(=O)(=O)OCCCCOS(C)(=O)=O [Busulfan] | −1.15 | −1.15 | –
CO[C@H]1C[C@@H]2CC[C@@H](C)[C@@](O)(O2)C(=O)C(=O)N2CCCC[C@H]2C(=O)O[C@H]([C@H](C)C[C@@H]2CC[C@@H](OCCO)[C@H](OC)C2)CC(=O)[C@H](C)/C=C(\C)[C@@H](O)[C@@H](OC)C(=O)[C@H](C)C[C@H](C)/C=C/C=C/C=C/1C [Everolimus] | 5.01 | 5.01 | about 5.01
CN(Cc1cnc2nc(N)nc(N)c2n1)c1ccc(C(=O)N[C@@H](CCC(=O)O)C(=O)O)cc1 [Methotrexate] | 0.94 | 0.94 | –
